Here are results for 4 compounds from US20050233984A1, “Composition for preventing or treating degenerative brain diseases comprising a hydrolysate of ginsenosides” (Digital Biotech Co., Ltd., priority 2002, published 2005).

The nature of series [1]: Degree of BBB penetration: pharmacokinetics in blood and brain by LC-mass. Format: in vivo, Sprague-Dawley rat. Conditions: SD rat; for migration into the brain (in words): 1 mg/kg intravenous Rg1 or Rb1. Here is the method: A male Sprague-Dawley rat (weight 250-300 g) was lightly anesthetized with ether and catheterized with a polyethylene tube (PE-50) in the femoral artery and vein. After the rat recovered, a saline solution containing 1 mg/kg of Rg1 or Rb1 was administered into the femoral vein through the intravenous bolus administration. 300 μl blood samples were collected from the rat's femoral artery at 2, 5, 10, 15, 20, 30, 45 and 60 minutes after the administration. Each blood sample was centrifuged to obtain 100 μl of plasma. A plasma sample was prepared as in (2) of step 1 with the plasma. 20 μl of the sample was injected into the LC mass system as in Step 1, and ginsenosides Rg1 and Rb1 and their metabolites PPD and PPT were quantified. The plasma concentrations of ginsenosides and their metabolites were calculated in the forms of weight per plasma (ml) (in case of ginsenosides) or peak size (in case of metabolites).
Immediately after collecting the blood samples, the rats were decapitated and brain tissues were obtained therefrom. The tissues were rinsed with ice-cooled saline, placed in a 15 ml Falcon tube and then weighed precisely. Acetonitrile was added to the tube in an amount twice the weight of the tissue sample, and the sample was homogenized using a tissue homogenizer (Ultra-Turrax T25, JANKE&KUNKEL IKA-Labortechnik). The mixture was centrifuged at 3,000 rpm for 20 minutes. 300 μl of the resulting supernatant was dried in a speed-vac, and 300 μl of acetonitrile was added thereto. 20 μl of the resulting mixture was injected in the LC mass system as in Step 1 to quantify the concentrations of ginsenosides and their metabolites in the brain, and the measured concentrations were represented by weight per gram of the brain tissue or peak size.
Separation and detection conditions for ginsenosides Rg1 and Rb1 were as described in Step 1, and those for metabolites PPD and PPT were as follows:
The transfer rate of the substances into the brain (Kbrain) can be represented by the ratio of the mean concentration of the substance in the brain (Cmean,brain) to the mean plasma concentration (Cmean,plasma) as in Equation 1. [formula]
The mean concentration of a substance can be determined by dividing the area under the concentration-time curve corresponding to time 0 to t by t and, accordingly, the transfer rate of the substance into the brain (Kbrain) can be calculated by Equation 2 shown below. [formula]

In series [2] the test system is neuroblastoma B103 cell line. Nature of the series: MTT test: apoptosis induced by staurosporin. Format: cell-based. Conditions: B103 cells, staurosporin-only control = 100%. Here is the method: (§1) 5×10^3 cells of neuroblastoma B103 cell line (donated by Dr. David Schubert of the Salk Institute, USA) were placed in each well of a 96-well plate with 100 μl of DMEM (Dulbecco's Minimal Eagle's Medium) containing 10% fetal bovine serum (FBS), and cultured at 37° C. under 8% CO2 for 1 day. After changing the medium to serum-free DMEM, the cells were treated with various concentrations of test compounds and, 1 hour later, with 25 μM of beta-amyloid (25-35 peptide; US peptide, CA, USA). The cells were cultured at 37° C. for 18 hours, treated with 15 μl of MTT solution [10 mg/ml solution of 3-(4,5-dimethyl-2-thiazolyl)-2,5-diphenyl-2H-tetrazolium bromide in phosphate buffered saline (PBS)], and allowed to react at 37° C. for 3 to 4 hours. 100 μl of lysis buffer (10% SDS, 50% dimethylformamide, pH 4.7) was added to the wells, and the cells were cultured overnight at room temperature and relative humidity of 90%. Optical density (OD) of each well was measured at […] and 630 nm, respectively, using a scanning multiwell spectrophotometer, and then the OD value at 630 nm was subtracted from that at 570 nm.
Further, in order to examine whether compounds originating from ginseng can block apoptosis, […], and the survival rates of the neural cells were determined.
(In general: Formazan colour is commonly taken as a measure of viable cells.)

A further series concerns mice. Nature of the series: Morris water maze test (spatial learning). It is filed as in vivo. Particulars: versus control group, FIG. 6.
Series [3] concerns neuroblastoma B103 cell line. Nature of the series: MTT test: preventing the toxicity of beta-amyloid. It is filed as cell-based. Conditions: B103 cells, beta-amyloid-only control = 100%. Here is the method: In order to examine the activities of the compounds prepared in the Reference Example in preventing the toxicity of beta-amyloid, the MTT analysis (Gillardon, F. et al., Brain Research. No. 6: pp. 169-172 (1996)) was carried out as follows.
as §1, with “After changing the medium to serum-free DMEM, the cells were treated with various concentrations of test compounds and, 1 hour later, with 25 μM of beta-amyloid (25-35 peptide; US peptide, CA, USA).” left out
Setting the survival rate of the control group treated only with beta-amyloid as 100%, relative survival rates of the experimental groups treated with compound Y, ginsenosides Mc and Rc, PPD and PPT, respectively, were calculated, and the results are shown in Table 2 and FIG. 1. The obtained values were statistically significant.
When the same procedure as above was repeated except that the cells were treated simultaneously with the test compound and beta-amyloid, or treated with the test compound one hour after the beta-amyloid treatment, the results were almost the same as above.
Further, in order to assess the concentration-dependent activity of a test compound, the above procedure was repeated using PPT at concentrations ranging from […].

[4] abbreviates: test compound 1 μM + 0.1 μM staurosporin.
[5] abbreviates: test compound 1 μM alone, without staurosporin.
The mark [6] stands for this setting: test compound 1 μM + 25 μM beta-amyloid (25-35), 18 hours.
Where [7] appears, read: test compound 1 μM alone, without beta-amyloid.

Turning to `CC(C)=CCC[C@](C)(O[C@@H]1O[C@H](CO[C@@H]2O[C@H](CO)[C@@H](O)[C@H](O)[C@H]2O)[C@@H](O)[C@H](O)[C@H]1O)[C@H]1CC[C@]2(C)[C@@H]1[C@H](O)C[C@@H]1[C@@]3(C)CC[C@H](O[C@@H]4O[C@H](CO)[C@@H](O)[C@H](O)[C@H]4O[C@@H]4O[C@H](CO)[C@@H](O)[C@H](O)[C@H]4O)C(C)(C)[C@@H]3CC[C@]12C` [ginsenoside Rb1, reference compound], in series [1], the “migration into the brain (in words)” value was “do not migrate into the brain”. The “concentration in the brain as compared with that in the plasma” value in series [1] (1 mg/kg intravenous bolus, until 60 min., FIG. 11b) is listed as “below 5.8%”.
As for `CC(C)=CCC[C@](C)(O[C@@H]1O[C@H](CO[C@@H]2O[C@@H](CO)[C@H](O)[C@H]2O)[C@@H](O)[C@H](O)[C@H]1O)[C@H]1CC[C@]2(C)[C@@H]1[C@H](O)C[C@@H]1[C@@]3(C)CC[C@H](O[C@@H]4O[C@H](CO)[C@@H](O)[C@H](O)[C@H]4O[C@@H]4O[C@H](CO)[C@@H](O)[C@H](O)[C@H]4O)C(C)(C)[C@@H]3CC[C@]12C` [Ginsenoside Rc], the “Survival rate (%)” value in series [2] (setting [4]) amounted to 97.0 ± 4.8%; in series [2] (setting [5]), 191.4 ± 4.9%; in series [3] (setting [6]), 106.0 ± 0.9%; in series [3] (setting [7]) it was 161.0 ± 4.9%; in series [3] (test compound 10 μM + 25 μM beta-amyloid (25-35), 18 hours), 107.2 ± 1.9%; in series [3] (test compound 10 μM alone, without beta-amyloid) it was 126.7 ± 3.7%. Also, the “time to reach the platform” value in the series with mice is listed as “much shorter time to reach the platform”.
For the compound `CC(C)=CCC[C@](C)(O[C@@H]1O[C@H](CO)[C@@H](O)[C@H](O)[C@H]1O)[C@H]1CC[C@]2(C)[C@@H]1[C@H](O)C[C@@H]1[C@@]3(C)CC[C@H](O)C(C)(C)[C@@H]3[C@@H](O[C@@H]3O[C@H](CO)[C@@H](O)[C@H](O)[C@H]3O)C[C@]12C` [ginsenoside Rg1, reference compound], in series [1], the “migration into the brain (in words)” value was “do not migrate into the brain”. In addition, in series [1] (1 mg/kg intravenous bolus of the ginsenoside, FIG. 11a), the “concentration in the brain” value is “below the detectable level”.
In the case of `CC(C)=CCC[C@](C)(O[C@@H]1O[C@H](CO[C@@H]2O[C@@H](CO)[C@H](O)[C@H]2O)[C@@H](O)[C@H](O)[C@H]1O)[C@H]1CC[C@]2(C)[C@@H]1[C@H](O)C[C@@H]1[C@@]3(C)CC[C@H](O)C(C)(C)[C@@H]3CC[C@]12C` [Ginsenoside Mc], the “Survival rate (%)” value was found to be 101.1 ± 2.7% in series [2] (setting [4]), 178.6 ± 6.3% in series [2] (setting [5]), 106.1 ± 2.4% in series [3] (setting [6]) and 148.0 ± 6.3% in series [3] (setting [7]). Besides, the “time to reach the platform” value in the series with mice is on record as “much shorter time to reach the platform”.
